Test results as given in PMC10439952, “JT002, a small molecule inhibitor of the NLRP3 inflammasome for the treatment of autoinflammatory disorders” (Scientific Reports, 2023).

System: ozone exposed C57BL6/J mice
Experiment: Murine model of ozone induced neutrophilic airway inflammation
Type: in vivo, mouse
Method: Four groups of 4 or 5 female C57BL6/J mice (The Jackson Laboratory, Bar Harbor, ME) at 8–12 weeks of age were housed under pathogen-free conditions and maintained on an ovalbumin-free diet. Mice were dosed orally with JT002 at 2.5 or 25 mg/kg once daily for 4 days. On the last day, 1-h post-dosing of test compound, mice were exposed to O3 at 1.0 ppm for 3 h in stainless steel wire cages set inside 240-L laminar flow inhalation chambers. O3 was generated by directing compressed medical-grade oxygen through an electrical discharge O3 generator (Sander Ozonizer, Model 25, Erwin Sander Elektroapparatebau GmbH, Uetze-Eltze, Germany) located upstream of the exposure chamber. Exposure to HEPA-filtered air was done in a separate chamber with age- and treatment-matched control animals.
Determination of airway hyperresponsiveness (AHR) AHR was assessed on Day 30 (iTreg model) or 3 h after the O3 exposure (ozone model) as a change in airway resistance (cm H2O/mL/s) after challenge with aerosolized methacholine with using a whole body plethysmograph-based system (National Jewish Medical and Research Center, Denver, CO). Methacholine aerosol was administered by nebulization in increasing concentrations (12.5–100 mg/mL) and RL was continuously computed by fitting flow, volume, and pressure to an equation of motion (Labview, National Instruments, Dallas, TX). Bronchoalveolar Lavage Immediately after assessment of AHR, lungs were lavaged via the tracheal tube with 1 mL of Hanks’ balanced salt solution (Gibco, Grand Island, NY). Total cell numbers were counted. Differential cell counts for neutrophils and macrophages were performed in a blinded fashion by counting at least 200 cells on cytocentrifuged preparations (Model Cytospin 3, Shandon Ltd, Runcorn, UK) stained with Leukostat (Fisher Diagnostics, Fair Lawn, NJ). Cell-free BAL fluid was stored at − 80 °C until measurements of cytokine levels by ELISA (eBioscience, San Diego, CA) were performed. Blood Collection Immediately following AHR measurement, mice were euthanized by exsanguination and blood collected for serum. Samples were stored at − 80 °C for subsequent measurement of immunoglobulin levels by ELISA. Lung Histology After BAL collection, lungs were inflated through the trachea with 1 mL of 10% formalin, removed and fixed in 10% formalin by immersion. Blocks of the lung tissue were cut around the main bronchus and embedded in paraffin blocks. Tissue sections (5 μm) were affixed to glass slides, and the slides were deparaffinized and stained with H&E for qualitative analysis of inflammatory cell influx and epithelial desquamation.

[1] = 2.5 mg/kg orally once daily for 4 days
[2] = 25 mg/kg orally once daily for 4 days

CO[C@@H]1COc2c(S(=O)(=O)NC(=O)Nc3c4c(cc5c3CCC5)CCC4)cnn2C1 [JT002]
AHR [1]: strong trend for reduction
BAL neutrophilia [1]: no effect
prevention of airway epithelial desquamation [1]: strong trend
BAL fluid neutrophil numbers [2]: significantly reduced
appearance of epithelial cells in the airway lumen [2]: visibly reduced
number of epithelial cells in the BAL fluid [2]: no effect
ozone-induced AHR [2]: prevented ozone-induced AHR
